From ChEMBL document CHEMBL4610062, “Cytotoxic and non-cytotoxic cardiac glycosides isolated from the combined flowers, leaves, and twigs of Streblus asper” (Bioorg Med Chem, 2020) come the findings set out here.

Each structure is given as a SMILES string.

One test has as its system HT-29. Nature of the test: Cytotoxicity against human HT-29 cells assessed as inhibition of cell viability incubated for 72 hrs by MTS assay. In kind it is functional, cell-based. As to conditions: HT-29, 72 h. (In general: Tetrazolium dyes change colour on reduction, which living cells bring about.)
In a further test the test system is OVCAR-3. The test can be described thus: Cytotoxicity against human OVCAR3 cells assessed as inhibition of cell viability incubated for 72 hrs by MTS assay. In kind it is functional, cell-based. Particulars: OVCAR-3, 72 h.
A short description of test [1]: Inhibition of Sodium/potassium-transporting ATPase in porcine cerebral cortex using ATP as substrate incubated for 15 mins by ADP-Glo Max Assay. Also on record: species or system Sus scrofa. (ADP-Glo turns the ADP formed in a reaction into a luminescent signal.)
A short description of test [2]: Cytotoxicity against human MDA-MB-435 cells assessed as inhibition of cell viability incubated for 72 hrs by MTS assay.

A word on the IC50: it is the concentration that inhibits the measured activity by half. Turning to `CO[C@H]1[C@H](O[C@H]2CC[C@]3(C=O)[C@H]4CC[C@]5(C)[C@](O)(C6=CC(=O)OC6)CC[C@]5(O)[C@@H]4CC[C@]3(O)C2)O[C@H](C)[C@H](O)[C@@H]1OC`, the IC50 in the test on HT-29 was more than 20 µM; with OVCAR-3, more than 20 µM; in test [1], 232 µM; in test [2] it was more than 20 µM.

Regarding `CO[C@H]1[C@H](O[C@H]2CC[C@]3(C=O)[C@H]4CC[C@]5(C)[C@@H]6CC[C@]5(O[C@H]5OC(=O)C[C@H]56)[C@@H]4CC[C@]3(O)C2)O[C@H](C)[C@H](O)[C@@H]1OC`, the IC50 (with HT-29; with OVCAR-3; in test [2]) was more than 20 µM in each case.

`C[C@H]1O[C@@H](O[C@H]2[C@@H](O)C[C@H](O[C@H]3[C@@H](O)C[C@H](O[C@H]4CC[C@@]5(C)[C@H](CC[C@@H]6[C@@H]5CC[C@]5(C)[C@@H](C7=CC(=O)OC7)CC[C@]65O)C4)O[C@@H]3C)O[C@@H]2C)C[C@H](O)[C@@H]1O` [DIGITOXIN] registered an IC50 in test [1] of 0.127 µM.

Take `CC(=O)O[C@H]1C(=O)[C@@]2(C)[C@H]([C@H](OC(=O)c3ccccc3)[C@]3(O)C[C@H](OC(=O)[C@H](O)[C@@H](NC(=O)c4ccccc4)c4ccccc4)C(C)=C1C3(C)C)[C@]1(OC(C)=O)CO[C@@H]1C[C@@H]2O` [PACLITAXEL]: the IC50 in test [2] stood at 0.0015 µM.
